# Reference: patent publication US12441754B2, “Galactoside inhibitor of galectins” (GALECTO BIOTECH AB, priority 2019, dated 2025)
# Read-outs that look alike come from different tables or passages of the source.
# Columns and labels:
# Galectin-1 [1] = molecular target: T1, Galectin-1 (Homo sapiens, UniProt P09382); settings: T. Delaine 2016; read-out: affinity to Galectin-1; cited from earlier work
# galectins = test system: T2, galectins; settings: cited from earlier work
# T2 construct: Kd, all galectins; other: compared with lactose
# Galectin-3 = Galectin-3 (Homo sapiens, UniProt P17931); test: fluorescence anisotropy assay, compound as inhibitor of galectin / fluorescein tagged saccharide probe interaction; format: binding
# From the text: (§1) Anal. Biochem. 334: 36-47, (Sörme et al., 2004) and Monovalent interactions of Galectin-1 By Salomonsson, Emma; Larumbe, Amaia; Tejler, Johan; Tullberg, Erik; Rydberg, Hanna; Sundin, Anders; Khabut, Areej; Frejd, Torbjorn; Lobsanov, Yuri D.; Rini, James M.; et al, From Biochemistry (2010), 49(44), 9518-9532, (Salomonsson et al., 2010).
# Galectin-1 [2] = molecular target: T1, Galectin-1; test: as above; format: binding
# From the text: as §1
# CACO-2 = CACO-2 model of uptake over the human intestine; format: in vitro ADME; settings: result in words
# From the text: (§2) For some compounds of this invention wherein R^1 of formula 1 is an alkylated hydroxy, for example —OCH3 high uptake and no efflux is observed in a CACO-2 model of uptake ver the human intestine. That predicts high likeliness of high human oral bioavailability.
# [3] = CACO-2 model of uptake over the human intestine; format: in vitro ADME; settings: human, Caco-2
# From the text: as §2
# Sequence of Galectin-3 (P17931 whole entry): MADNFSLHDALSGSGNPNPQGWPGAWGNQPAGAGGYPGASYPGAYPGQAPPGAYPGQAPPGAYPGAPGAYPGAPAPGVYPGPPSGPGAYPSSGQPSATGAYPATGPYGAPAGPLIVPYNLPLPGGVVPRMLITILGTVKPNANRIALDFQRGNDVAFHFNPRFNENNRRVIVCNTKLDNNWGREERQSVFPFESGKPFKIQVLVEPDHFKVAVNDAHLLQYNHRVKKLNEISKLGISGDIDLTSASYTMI
# T1 sequence (P09382 whole entry): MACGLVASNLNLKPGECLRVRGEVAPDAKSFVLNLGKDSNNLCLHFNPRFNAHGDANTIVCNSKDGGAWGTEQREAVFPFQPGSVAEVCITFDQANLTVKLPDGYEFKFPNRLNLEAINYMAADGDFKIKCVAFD
Kd (Galectin-3) [µM],Kd (Galectin-1 [2]) [µM],Structure (SMILES),also measured
–,–,OCC1O[C@@H](SC2O[C@H](CO)C(O)C(n3cc(-c4ccsc4)nn3)[C@H]2O)C(O)C(n2cc(-c3ccsc3)nn2)[C@H]1O (some centres unmarked),Kd (Galectin-1 [1]): < 0.01 µM
–,–,O=C[C@H](O)[C@@H](O)[C@@H](O)[C@H](O)CO [D-galactose],affinity relative to lactose (times lower) (galectins; compared with lactose): 50-100 times
0.4,0.11,"CO[C@@H]1[C@@H](n2cc(-c3nc(Cl)cs3)nn2)[C@@H](O)[C@@H](CO)O[C@@H]1Sc1cnc2ncsc2c1 [Example 101, Thiazolo[4,5-b]pyridin-6-yl 3-[4-(4-chlorothiazol-2-yl)-1H-1,2,3-triazol-1-yl]-3-deoxy-2-O-methyl-1-thio-α-D-galactopyranoside]",–
0.42,0.19,"CO[C@@H]1[C@@H](n2cc(-c3nc(Cl)cs3)nn2)[C@@H](O)[C@@H](CO)O[C@@H]1Sc1cncc(SC)c1 [Example 102, 5-Methylsulfanylpyridin-3-yl 3-[4-(4-chlorothiazol-2-yl)-1H-1,2,3-triazol-1-yl]-3-deoxy-2-O-methyl-1-thio-α-D-galactopyranoside]",–
1,0.33,"CO[C@@H]1[C@@H](n2cc(-c3nc(Cl)cs3)nn2)[C@@H](O)[C@@H](CO)O[C@@H]1Sc1cncc(SC(F)(F)F)c1 [Example 103, 5-(Trifluoromethylsulfanyl)pyridin-3-yl 3-[4-(4-chlorothiazol-2-yl)-1H-1,2,3-triazol-1-yl]-3-deoxy-2-O-methyl-1-thio-α-D-galactopyranoside]",–
–,–,OC[C@H]1O[C@@H](O[C@H]2[C@H](O)[C@@H](O)C(O)O[C@@H]2CO)[C@H](O)[C@@H](O)[C@H]1O (some centres unmarked) [lactose],"Kd (galectins; read-out: Kd, all galectins): 100 to 1000 µM"

Structure (SMILES),Kd (Galectin-3) [µM],Kd (Galectin-1 [2]) [µM],also measured
"CO[C@@H]1[C@@H](n2cc(-c3nccs3)nn2)[C@@H](O)[C@@H](CO)O[C@@H]1Sc1cc(Cl)c(F)c(Cl)c1 [Example 1, 3,5-Dichloro-4-fluorophenyl 3-deoxy-2-O-methyl-3-[4-(2-thiazolyl)-1H-1,2,3-triazol-1-yl]-1-thio-α-D-galactopyranoside]",8,–,"Kd (Galectin-1 [2]; read-out: Galectin-1 Kd): 0.175 µM; uptake and efflux in CACO-2 model (CACO-2): the uptake is very high and virtually no efflux is observed; Papp A→B ([3]; A>B, read-out: Papp from the apical to the basolateral side (A>B)): 20 ×10⁻⁶ cm/s; Papp B→A ([3]; B>A, read-out: Papp from the basolateral to the apical side B>A): 28 ×10⁻⁶ cm/s"
